pIC50: −log10 of the molar value.
Assays:
[1] = molecular target: hOX1R (Homo sapiens, UniProt O43613); assay: FLIPR Ca2+ Flux Assay, orexin-1 receptor; type: cell-based; conditions: CHO cells expressing orexin-1 receptor; agonist 70 pM Ala-6,12 orexin-A
[2] = molecular target: human orexin-2 receptor (Homo sapiens (Human), UniProt O43614); assay: FLIPR Ca2+ Flux Assay, orexin-2 receptor; type: cell-based; conditions: CHO cells expressing the human orexin-2 receptor; agonist 70 pM Ala-6,12 orexin-A; read-out: hOX2R FLIPR IC50
Chain of human orexin-2 receptor (O43614 whole entry): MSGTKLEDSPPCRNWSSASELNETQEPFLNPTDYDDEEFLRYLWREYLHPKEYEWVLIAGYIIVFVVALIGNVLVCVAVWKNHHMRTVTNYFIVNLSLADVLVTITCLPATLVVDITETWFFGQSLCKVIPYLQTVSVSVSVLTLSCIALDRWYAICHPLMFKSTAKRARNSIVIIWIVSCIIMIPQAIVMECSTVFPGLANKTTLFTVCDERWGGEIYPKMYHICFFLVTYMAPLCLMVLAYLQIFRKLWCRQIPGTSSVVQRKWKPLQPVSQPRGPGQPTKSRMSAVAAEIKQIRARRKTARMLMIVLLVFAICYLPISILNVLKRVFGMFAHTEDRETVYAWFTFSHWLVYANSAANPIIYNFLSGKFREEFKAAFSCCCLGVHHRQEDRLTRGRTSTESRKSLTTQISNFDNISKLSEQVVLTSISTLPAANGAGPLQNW
Description: In a typical experiment the OX1 and OX2 receptor antagonistic activity of the compounds of the present invention was determined in accordance with the following experimental method. For intracellular calcium measurements, Chinese hamster ovary (CHO) cells expressing the rat orexin-1 receptor or the human orexin-2 receptor, are grown in Iscove's modified DMEM containing 2 mM L-glutamine, […], 1% hypoxanthine-thymidine supplement, 100 U/ml penicillin, 100 μg/ml streptomycin and 10% heat-inactivated fetal calf serum (FCS). The cells are seeded at 20,000 cells/well into Becton-Dickinson black 384-well clear bottom sterile plates coated with poly-D-lysine. All reagents were from GIBCO-Invitrogen Corp. The seeded plates are incubated overnight at 37° C. and 5% CO2. Ala-6,12 human orexin-A as the agonist is prepared as a 1 mM stock solution in 1% bovine serum albumin (BSA) and diluted in assay buffer (HBSS containing 20 mM HEPES, 0.1% BSA and 2.5 mM probenecid, pH7.4) for use in the assay at a final concentration of 70 pM. Test compounds are prepared as 10 mM stock solution in DMSO, then diluted in 384-well plates, first in DMSO, then assay buffer. On the day of the assay, cells are washed 3 times with 100 μl assay buffer and then incubated for 60 min (37° C., 5% CO2) in 60 μl assay buffer containing 1 μM Fluo-4 AM ester, 0.02% pluronic acid, and 1% BSA. The dye loading solution is then aspirated and cells are washed 3 times with 100 μl assay buffer. 30 μl of that same buffer is left in each well. Within the Fluorescent Imaging Plate Reader (FLIPR, Molecular Devices), test compounds are added to the plate in a volume of 25 μl, incubated for 5 min and finally 25 μl of agonist is added. Fluorescence is measured for each well at 1 second intervals for 5 minutes and the height of each fluorescence peak is compared to the height of the fluorescence peak induced by 70 pM Ala-6,12 orexin-A with buffer in place of antagonist. […] Alternatively, compound potency can be assessed by a radioligand binding assay (described in Bergman et. al. Bioorg. Med. Chem. Lett. 2008, 18, 1425-1430) in which the inhibition constant (Ki) is determined in membranes prepared from CHO cells expressing either the OX1 or OX2 receptor. The intrinsic orexin receptor antagonist activity of a compound which may be used in the present invention may be determined by these assays.

Structure (SMILES)	pIC50 [1]	pIC50 [2]
CCN(CCc1cccc(C(C)(C)O)n1)C(=O)c1ccccc1-c1ncccn1 [Example 32, N-Ethyl-N-(2-(6-(2-hydroxypropan-2-yl)pyridin-2-yl)ethyl)-2-(pyrimidin-2-yl)benzamide]	5.13	7.80
CCN(CCc1nccc(C(C)O)n1)C(=O)c1ccccc1-n1nccn1 (stereo not shown) [Example 43, N-Ethyl-N-(2-(4-(1-hydroxyethyl)pyrimidin-2-yl)ethyl)-2-(2H-1,2,3-triazol-2-yl)benzamide]	< 5.00	6.78
CCN(CCc1cccc(C(C)(C)O)n1)C(=O)c1ccccc1OCC(F)F [Example 20, 2-(2,2-difluoroethoxy)-N-ethyl-N-(2-(6-(2-hydroxypropan-2-yl)pyridin-2-yl)ethyl)benzamide]	< 5.00	6.87
CCN(CCc1cccc(C(C)(C)O)n1)C(=O)c1cccnc1-n1cccn1 [Example 24, N-ethyl-N-(2-(6-(2-hydroxypropan-2-yl)pyridin-2-yl)ethyl)-2-(1H-pyrazol-1-yl)nicotinamide]	< 5.00	7.44
CCN(CCc1ccc(C(C)(C)O)cn1)C(=O)c1ccc(F)cc1-n1nccn1 [Example 61, N-ethyl-4-fluoro-N-{2-[5-(1-hydroxy-1-methylethyl)pyridin-2-yl]ethyl}-2-(2H-1,2,3-triazol-2-yl)benzamide]	< 5.00	7.59
CCN(CCc1ccnc(C(C)(C)O)n1)C(=O)c1ccccc1-n1nccn1 [Example 40, N-Ethyl-N-(2-(2-(2-hydroxypropan-2-yl)pyrimidin-4-yl)ethyl)-2-(2H-1,2,3-triazol-2-yl)benzamide]	< 5.00	7.13
CCN(CCc1cccc(C(C)(C)O)n1)C(=O)c1ncccc1-c1ccccc1 [Example 26, N-ethyl-N-(2-(6-(2-hydroxypropan-2-yl)pyridin-2-yl)ethyl)-3-phenylpicolinamide]	< 5.00	6.34
CCN(CCc1cc(C)c(C(C)(C)O)cn1)C(=O)c1ccccc1-n1nccn1 [Example 47, N-Ethyl-N-(2-(5-(2-hydroxypropan-2-yl)-4-methylpyridin-2-yl)ethyl)-2-(2H-1,2,3-triazol-2-yl)benzamide]	5.81	7.80
